Laboratory results published in US12329799B2, “Peptidyl inhibitors of calcineurin-NFAT interaction” (Ohio State Innovation Foundation, priority 2018, dated 2025).
Positions of bridges follow the written chain, without caps; N, C: chain ends. Non-standard residues stand in square brackets, D forms with d. Residues, ends and D or L forms follow the SMILES beside them. Chains are numbered I, II in the order given. *: point of attachment. Benzoyl(2,3-Cl2) = O=C(c1cccc(Cl)c1Cl)*; 2Nal = N[C@@H](Cc1ccc2ccccc2c1)C(=O)O; Tle = CC(C)(C)[C@H](N)C(=O)O; AEEA = NCCOCCOCC(=O)O

What was measured:
Caco-2 cell monolayers = test: Caco-2 permeability assay; format: in vitro ADME
Procedure: (§1) Caco-2 permeability assay. To assay the permeability of test compounds by Caco-2 cell model, Caco-2 cells were cultured to confluency before being trypsinized and seeded onto filter transwell inserts at a density of 30,000 cells/well in DMEM medium. Cells were cultured in a humidified atmosphere with 5% CO2 at 37° C. After overnight attachment, cell medium was replaced with fresh medium at both apical and basolateral sides every other day. The cell monolayers are ready for the assay 20 days post seeding. […] The dosing solution at 10 μM was obtained by diluting 10 mM stock solution in HBSS medium (pH 7.4, 25 mM HEPES) freshly before the assay. Terfenadine (25 ng/mL) and Tolbutamide (50 ng/mL) were added into dosing solution as internal standards. […] The culture medium from either the basolateral side (plate B) or apical side (plate A) were aspirated and then rinsed with HBSS medium once. Afterwards, the dosing medium was added to either basolateral or apical side. Following the incubation, 100 microliter samples from both sides were harvested at time 0 and time 90 min. Samples were quenched with acetonitrile/methanol (1:1 v/v), centrifuged, and analyzed on a Shimadzu reversed-phase HPLC and Sciex API4500 Q trap instrument.
(§2) Permeability parameters were calculated using the following equations and shown in Table 10: Papp=(Conc.receiver,90 min*Volumereceiver)/(Time*Membrane Area*Conc.donor,0 min) Efflux Ratio=Papp[B to A]/Papp[A to B]

[1] = Caco-2 permeability assay; format: in vitro ADME; conditions: human, Caco-2, pH 7.4
Procedure: as §1, §2

plasma protein = test: in vitro; format: in vitro ADME; set-up: dose or concentration left out as unconfirmed; conditions: mouse, pH 7.4
Procedure: (§3) Plasma binding was assessed using mouse plasma obtained from in-life studies. CNI103 was diluted to […] in pre-warmed mouse plasma. The solution was added to the left chamber of a commercial plate based RED (rapid equilibrium dialysis) device. Isotonic sodium phosphate buffer (100 mM sodium phosphate, 100 mM sodium chloride, pH 7.4) was added to the outer chamber of the RED device and the plate was incubated at 37° C. for five hours. Aliquots of the buffer and the plasma were withdrawn before and after the incubation and the concentrations of free and bound test compound were determined by LC/MS/MS analysis. To test for plasma stability, the dosing solution was also incubated at 37° C. for 5 hours and the concentration of CNI103 was determined by LC/MS/MS analysis as described above.
(§4) The calculation of percentage binding is calculated using the following equations and the results are presented in Table 13: Binding %=(Cpe−Cb)/Cpe×100 • Cpe=Conc. of test compound in plasma at equilibrium • Cb=Conc. of test compound in buffer at equilibrium % Stability of test compound=(Conc. of stability sample/Conc. of time zero sample)×100 % Recovery=(Cpe+Cb)/Conc. of stability sample×100

in vitro = in vitro ADME; set-up: dose or concentration left out as unconfirmed; conditions: mouse, plasma; for fraction unbound at 5 h: pH 7.4
Procedure: as §3, §4

Jurkat cells = test: MTT assay, Jurkat; format: cell-based
Procedure: (§5) MTT Proliferation Assay. HeLa, Jurkat-Lucia, or H441 cells were seeded into a 96-well microplate (5000 cells per well) in full growth media and incubated at 37° C. overnight. A serial dilution of each compound was prepared in DPBS and then added to each well. The treated cells were incubated at 37° C. with 5% CO2 for 72 h. Following compound treatment, 10 μL of MTT stock solution was added to each well. After an additional 4 h at 37° C., 100 μL of SDS-HCl solubilizing solution was added to each well and the plate was returned to the incubator overnight at 37° C. A Tecan Infinite M1000 Pro microplate reader was used the following morning to measure the absorbance of the formazan product at 565 nm.

HeLa cells [2] = test: MTT assay, HeLa; format: cell-based; conditions: MTT, 72 h
Procedure: as §5
Potential cytotoxicity of CNI101 (SEQ ID NO: 206) and CNI103 (SEQ ID NO: 208) was tested on HeLa cells by the MTT proliferation assay. HeLa cells were seeded into a 96-well microplate (5000 cells per well) in full growth media and incubated at 37° C. overnight. A serial dilution of each inhibitor was prepared in DPBS and then added to each well. The treated cells were incubated at 37° C. with 5% CO2 for 72 h. Following compound treatment, 10 μL of MTT stock solution was added to each well. After an additional 4 h at 37° C., 100 μL of SDS-HCl solubilizing solution was added to each well and the plate was returned to the incubator overnight at 37° C. A Tecan Infinite M1000 Pro microplate reader was used the following morning to measure the absorbance of the formazan product at 565 nm.

Serum stability assay = format: in vitro ADME; conditions: 25% human serum, 37° C., 24 h, read-out: degradation in human serum
Procedure: Serum Stability Assay. Diluted human serum (25%) (H4522 human serum, Sigma) was centrifuged at 15,000 rpm for 10 min, and the supernatant was collected. A peptide stock solution was diluted into the supernatant to a final concentration of 5 μM and incubated at 37° C. At various time points (0-24 h), 200-μL aliquots were withdrawn and mixed with 100 μL of 15% trichloroacetic acid and incubated at 4° C. overnight. The final mixture was centrifuged at 15,000 rpm for 10 min in a microcentrifuge, and the supernatant was analyzed by reversed-phase HPLC equipped with a C18 column. The amount of remaining peptide (%) was determined by integrating the area underneath the peptide peak (monitored at 214 nm) and comparing with that from the peptide at time 0.

[3] = tested on: NFAT-mediated luciferase expression in Jurkat cells; test: NFAT luciferase assay in Jurkat cells; format: cell-based; conditions: qualitative
Procedure: In a separate experiment, CNI93 was also tested against Jurkat cells expressing a luciferase gene under the transcriptional control of NFAT.
NFAT Luciferase Assay. Jurkat-Lucia cells maintained in RPMI-1640 supplemented with 10% FBS, 1% penicillin/streptomycin (v/v/v) and 100 μg/mL normocin were harvested after a passage with 50 μg/mL selective antibiotic Zeocin at 300×RCF for 5 min. Cells were resuspended in warm RPMI-1640 with antibiotics but without FBS to a final density of 2×10^6 cells/mL and seeded into white-on-white cell-culture treated 96-well plates. To each well was added 10 μL of DPBS containing compounds which dilute to the desired concentrations followed by 170 μL of cell suspension […] and incubated at 37° C. for 2 h. The cells were induced by treatment with 50 ng/mL PMA and 3 μg/mL ionomycin, Ca^2+ salt in FBS to achieve a final FBS concentration of 10% in each well (with FBS only as control). The plate was incubated for an additional 4 h at 37° C., when 20 μL of each sample was withdrawn and mixed with 50 μL of Quanti-Luc assay solution. The luminescence of the mixture was immediately measured on a Tecan Infinite M1000 plate reader.

Calcineurin (GST-CN) = target: T1, Calcineurin (GST-CN) (Homo sapiens, UniProt Q08209); test: FA-based competition with FITC-labeled peptide 14 for binding to CN; conditions: unlabeled; inhibition of binding of peptide 14 to CN
T1 construct: made in house; host or cells: E. coli BL21
T1 sequence (Q08209 2-347 limits assumed): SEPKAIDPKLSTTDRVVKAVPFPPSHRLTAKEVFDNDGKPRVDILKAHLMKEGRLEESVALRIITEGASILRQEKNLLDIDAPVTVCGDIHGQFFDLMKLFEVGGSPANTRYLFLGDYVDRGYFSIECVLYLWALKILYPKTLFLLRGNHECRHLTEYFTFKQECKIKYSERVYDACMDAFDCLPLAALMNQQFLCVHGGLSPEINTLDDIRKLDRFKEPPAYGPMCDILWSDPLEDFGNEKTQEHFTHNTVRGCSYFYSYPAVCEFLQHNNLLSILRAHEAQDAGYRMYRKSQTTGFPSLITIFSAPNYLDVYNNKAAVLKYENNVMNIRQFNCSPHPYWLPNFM
Procedure: Serial dilutions of competitor peptides were prepared in PBS with 0.01% Trition-X100 and then added to the incubation solution and equilibrated at RT with gentle mixing for 1 h. Samples were pipetted into 384-well black microplates and FP signal was measured using a TECAN Infinite M1000 plate reader and analyzed using GraphPad PRISM v.6.

HeLa cells [4] = conditions: 100% = equal cargo concentration in cytosol and extracellular medium; cited from earlier work

Row | Compound | recovery at 5 h (plasma protein) [%] | remaining at 5 h (in vitro) [%] | fraction unbound at 5 h (in vitro) | also measured
1 | CC(C)NCC(O)COc1cccc2ccccc12 (stereo not drawn) [Propranolol, reference compound] |  |  |  | Pgp Substrate (Caco-2 cell monolayers): No; Papp B→A at 90 min, 10 μM ([1]; N = 2, 10 μM, 90 min): 26 ×10⁻⁶ cm/s; efflux ratio at 90 min, 10 μM ([1]; Papp[B to A]/Papp[A to B]): 0.7
2 | CC(=O)CC(c1ccccc1)c1c(O)c2ccccc2oc1=O (stereo not drawn) [Warfarin] | 103 | 101 | 0.086 | 
3 | CC[C@H](C)[C@H](NC(=O)[C@@H](NC(=O)c1cccc(Cl)c1Cl)C(C)(C)C)C(=O)N[C@H](C(=O)N[C@H](C(=O)N[C@H](C(=O)N[C@@H](CCC(N)=O)C(=O)N[C@@H](Cc1c[nH]cn1)C(=O)N[C@H](CC(C)C)C(=O)N[C@@H](CO)C(=O)NCCOCCOCC(=O)N[C@@H](CCCCNC(=O)CC[C@@H]1NC(=O)[C@@H](CCCNC(=N)N)NC(=O)[C@H](CCCNC(=N)N)NC(=O)[C@@H](CCCNC(=N)N)NC(=O)[C@H](CCCNC(=N)N)NC(=O)[C@H](Cc2ccc3ccccc3c2)NC(=O)[C@@H](Cc2ccccc2)NC1=O)C(N)=O)[C@@H](C)O)[C@@H](C)CC)C(C)(C)C [CNI95] (I: {Benzoyl(2,3-Cl2)}-[Tle]I[Tle]ITQH[dL]S[AEEA]K-NH2 / II: cyclo([2Nal]R[dR]R[dR]E[dF]); amide I:11-II:6 (inferred); ring closure inferred) |  |  |  | concentrations decreasing cell viability (Jurkat cells): ≥ 25 µM; concentrations decreasing cell viability (HeLa cells [2]): ≥ 25 µM; metabolised at 24 h, 5 μM (Serum stability assay): ~12%; attenuation of NFAT activity in Jurkat cells relative to CNI93 [3]: vastly superior; higher potency than CNI93 in FA-based competition assay (Calcineurin (GST-CN)): ~5 fold
4 | C=C[C@H]1C[N@@]2CC[C@H]1C[C@@H]2[C@@H](O)c1ccnc2ccc(OC)cc12 [Quinidine] | 102 | 107 | 0.243 | 
5 | CCOc1ccc(NC(C)=O)cc1 [Phenacetine] | 73.3 | 73.8 | 0.635 | 
6 | cyclic (fΦRrRrQ) (cyclo([dF][2Nal]R[dR]R[dR]Q); SMILES N=C(N)NCCC[C@@H]1NC(=O)[C@H](Cc2ccc3ccccc3c2)NC(=O)[C@@H](Cc2ccccc2)NC(=O)[C@H](CCC(N)=O)NC(=O)[C@@H](CCCNC(=N)N)NC(=O)[C@H](CCCNC(=N)N)NC(=O)[C@@H](CCCNC(=N)N)NC1=O) [CPP9] |  |  |  | absolute cytosolic delivery efficiency (HeLa cells [4]): 62%
